Assay results from patent publication US20130116251A1, “Novel HSP90 Inhibitor” (Nippon Kayaku Kabushiki Kaisha, priority 2005, published 2013).

Tests used:
rHSP90 = assay: HSP90 binding assay (BIACORE SPR; inhibition of binding between rHSP90 and fixed herbimycin A); settings: concentration inhibiting binding between rHSP90 (50 μg/mL) and fixed herbimycin A by 50%, BIACORE-X SPR; read-out: HSP90 inhibitory activity IC50
[1] = tested on: Human breast cancer cells (MCF7); assay: Antiproliferative activity on MCF7 cells (methylene blue method); assay type: cell-based; settings: Homo sapiens, MCF7, 72 h, MCF7 cells, 72 hours treatment, 660 nm absorbance after methylene blue staining; read-out: Antiproliferative activity IC50
Human lung cancer H460 = assay: Antitumor effect on nude mice transplanted with human lung cancer H460; assay type: in vivo; settings: Table 9, tail vein, 5 days continuous, day 8, starting day = 1.0, control group 4.6 ± 3.1
Method: Antitumor Effect on Nude Mice Transplanted with Human Lung Cancer
Human lung cancer H460 tumor fragment, which had been passaged subcutaneously in nude mice, was made into about 3 mm fragment and transplanted subcutaneously to the back of nude mice using a trocar. When the tumor volume grew to about 50 mm^3 or above, the compound of the present invention was administered to the tail vein once a day for 5 or 7 days every day. The compound of the present invention was dissolved in DMSO, mixed with TWEEN 80, and then diluted with a 5% glucose injection solution and used. The vehicle of the compound was administered to the control group of OH-a01. The control groups in other experiments were not treated. The tumor volume was measured on the first administration day and on the evaluation day (7 or 8 days after the start of the administration), and the relative tumor volume of the evaluation day was obtained from the tumor volume on the first administration day. Further, the tumor volume was calculated by measuring the major axis (Lmm) and minor axis (Wmm) of the tumor and by the formula (L×W^2)/2.
Relative tumor volume represents the average relative tumor volume on day 7 after the start of the administration, assuming the tumor volume of the starting day is 1.0.
Relative tumor volume represents the average relative tumor volume on day 8 after the start of the administration, assuming the tumor volume of the starting day is 1.0.

[2] = tested on: HSP90 client protein ERα in MCF7 cells; assay: Measurement test for amount of HSP90 client protein ERα (Western blotting); assay type: cell-based; settings: MCF7 cells treated 16 hours at 3-5 concentrations
Method: (§1) MCF7 cells (American Type Culture Collection, Rockville, Md.) were treated with the compounds of the present invention at various concentrations for 16 hours to confirm that the HSP90 inhibitors of the present invention induce a depression of intracellular concentration of the client protein or target polypeptide that bind to HSP90. The amount of the HSP90 client protein Her2 and ERα was evaluated by the Western blotting method.
(§2) One million cells were seeded in a 6 cm dish, and 24 hours later the compounds of the present invention (Example 1-2, Example 2-1, Example 2-13, Example 2-2, Example 3-4, Example 2-5, Example 3-16, Example 3-6, Example 2-7, Example 3-27, Example 2-10 and Example 3-18) were added. Cells treated with the compounds were washed, mixed with 150 μl of lysis buffer (RIPA, 150 mM NaCl, 1% NP40, 0.1% deoxycholate (sodium salt), 0.1% SDS, 1 mM EDTA, 10 mM Tris-HCl (pH 8.0)) and incubated at 4° C. for 30 minutes. The cell lysates were centrifuged (15,000 rpm, 20 minutes) and protein (20 μg) of the supernatant was subjected to SDS polyacrylamide gel electrophoresis (SDS-PAGE). After finishing the electrophoresis, proteins in the gel were transferred to a PVDF membrane. The membrane after the transfer was treated with a primary antibody against the HSP90 client protein (anti Her2 or anti ERa antibody, both from Santa Cruz Biotechnology, Santa Cruz, Calif.), then treated with secondary antibodies (anti-rabbit Ig, horse radish peroxidase conjugated F(ab′)2 fragment (derived from donkey): Amersham Biosciences, UK Limited, Buckinghamhshire, UK.) and then the amount of the client protein was detected as the intensity of chemiluminescence signal with a chemiluminescence reagent (ECL: Amersham Biosciences UK Limited, Buckinghamshire, UK).

[3] = tested on: HSP90 client protein Her2 in MCF7 cells; assay: Measurement test for amount of HSP90 client protein Her2 (Western blotting); assay type: cell-based; settings: MCF7 cells treated 16 hours at 3-5 concentrations
Method: as §1, §2

IC50 (rHSP90): 120 nM | IC50 [1]: 11 nM | melting point: 272 °C (dec.)
Structure (SMILES): COc1ccc(-n2c(-c3cc(C(C)C)c(O)cc3O)n[nH]c2=O)cc1 [OH-a08, 5-(2,4-dihydroxy-5-isopropyl-phenyl)-4-(4-methoxy-phenyl)-2,4-dihydro-[1,2,4]triazol-3-one]
Relative tumor volume (Average ± SD) (Human lung cancer H460; 100 mg/kg/day): 1.9 ± 1.0 | Relative tumor volume (Average ± SD) (Human lung cancer H460; 200 mg/kg/day): 1.1 ± 0.3 | amount of HSP90 client protein ERα [2]: depression | amount of HSP90 client protein Her2 [3]: depression
